The values that follow come from patent US9963464B2, “Macrocyclic compounds” (Bayer Pharma Aktiengesellschaft, priority 2014, dated 2018).

For one test, the target named is T1, CDK9/CycT1 (Homo sapiens, UniProt P50750).
T1 construct: Recombinant full-length His-tagged human CDK9 and CycT1; His; purchased Invitrogen PV4131; host or cells: insect cells
As to the kind of experiment: CDK9/CycT1 high ATP kinase assay (TR-FRET, Method 1b). It counts as biochemical. Particulars: for IC50: Method 1b, 2 mM ATP; for Selectivity high ATP CDK9 over high ATP CDK2: IC50 (high ATP CDK2)/IC50 (high ATP CDK9): Methods 1b and 2b, minimal values where CDK9 IC50 is at the assay limit. As for the experimental part:
1b. CDK9/CycT1 High ATP Kinase Assay
CDK9/CycT1-inhibitory activity of compounds of the present invention at a high ATP concentration after preincubation of enzyme and test compounds was quantified employing the CDK9/CycT1 TR-FRET assay as described in the following paragraphs.
Recombinant full-length His-tagged human CDK9 and CycT1, expressed in insect cells and purified by Ni-NTA affinity chromatography, were purchase from Invitrogen (Cat. No PV4131). As substrate for the kinase reaction biotinylated peptide biotin-Ttds-YISPLKSPYKISEG (C-terminus in amid form) was used which can be purchased e.g. from the company JERINI peptide technologies (Berlin, Germany). For the assay 50 nl of a 100 fold concentrated solution of the test compound in DMSO was pipetted into a black low volume 384 well microtiter plate (Greiner Bio-One, Frickenhausen, Germany), 2 μl of a solution of CDK9/CycT1 in aqueous assay buffer [50 mM Tris/HCl pH 8.0, 10 mM MgCl2, 1.0 mM dithiothreitol, 0.1 mM sodium ortho-vanadate, 0.01% (v/v) Nonidet-P40 (Sigma)] were added and the mixture was incubated for 15 min at 22° C. to allow pre-binding of the test compounds to the enzyme before the start of the kinase reaction. […] The concentration of CDK9/CycT1 was adjusted depending of the activity of the enzyme lot and was chosen appropriate to have the assay in the linear range, typical concentrations were in the range of 0.5 μg/mL. The reaction was stopped by the addition of 5 μl of a solution of TR-FRET detection reagents (0.2 μM streptavidine-XL665 [Cisbio Bioassays, Codolet, France] and 1 nM anti-RB(pSer807/pSer811)-antibody from BD Pharmingen [#558389] and 1.2 nM LANCE EU-W1024 labeled anti-mouse IgG antibody [Perkin-Elmer, product no. AD0077]) in an aqueous EDTA-solution (100 mM EDTA, 0.2% (w/v) bovine serum albumin in 100 mM HEPES pH 7.5).
The resulting mixture was incubated 1 h at 22° C. to allow the formation of complex between the phosphorylated biotinylated peptide and the detection reagents. Subsequently the amount of phosphorylated substrate was evaluated by measurement of the resonance energy transfer from the Eu-chelate to the streptavidine-XL. Therefore, the fluorescence emissions at 620 nm and 665 nm after excitation at 350 nm was measured in a HTRF reader, e.g. a Rubystar (BMG Labtechnologies, Offenburg, Germany) or a Viewlux (Perkin-Elmer). The ratio of the emissions at 665 nm and at […] was taken as the measure for the amount of phosphorylated substrate. The data were normalised (enzyme reaction without inhibitor=0% inhibition, all other assay components but no enzyme=100% inhibition).
(In TR-FRET formats the signal depends on donor and acceptor labels being close together.)

In another test the test system is HeLa cells. As to the kind of experiment: Proliferation assay HeLa. In kind it is cell-based, human. Particulars: 4 days, crystal violet, read-out: Inhibition of HeLa cell proliferation IC50. As for the experimental part:
Cultivated tumour cells (HeLa, human cervical tumour cells, ATCC CCL-2; NCI-H460, human non-small cell lung carcinoma cells, ATCC HTB-177; A2780, human ovarian carcinoma cells, ECACC #93112519; DU 145, hormone-independent human prostate carcinoma cells, ATCC HTB-81; HeLa-MaTu-ADR, multidrug-resistant human cervical carcinoma cells, EPO-GmbH Berlin; Caco-2, human colorectal carcinoma cells, ATCC HTB-37; B16F10, mouse melanoma cells, ATCC CRL-6475) were plated at a density of 5,000 cells/well (DU145, HeLa-MaTu-ADR), 3,000 cells/well (NCI-H460, HeLa), 2,500 cells/well (A2780), 1,500 cells/well (Caco-2), or 1,000 cells/well (B16F10) in a 96-well multititer plate in 200 μL of their respective growth medium supplemented 10% fetal calf serum. After 24 hours, the cells of one plate (zero-point plate) were stained with crystal violet (see below), while the medium of the other plates was replaced by fresh culture medium (200 μl), to which the test substances were added in various concentrations (0 μM, as well as in the range of 0.001-10 μM). The cells were incubated for 4 days in the presence of test substances. Cell proliferation was determined by staining the cells with crystal violet: the cells were fixed by adding 20 μl/measuring point of an 11% glutaric aldehyde solution for 15 minutes at room temperature. After three washing cycles of the fixed cells with water, the plates were dried at room temperature. The cells were stained by adding 100 μl/measuring point of a 0.1% crystal violet solution (pH 3.0). After three washing cycles of the stained cells with water, the plates were dried at room temperature. The dye was dissolved by adding 100 μl/measuring point of a 10% acetic acid solution. The extinction was determined by photometry at a wavelength of 595 nm. The change of cell number, in percent, was calculated by normalization of the measured values to the extinction values of the zero-point plate (=0%) and the extinction of the untreated (0 μm) cells (=100%). The IC50 values (inhibitory concentration at 50% of maximal effect) were determined by means of a 4 parameter fit. Non-adherent MOLM-13 human acute myeloid leukemia cells (DSMZ ACC 554) were seeded at a density of 5,000 cells/well in a 96-well multititer plate in 100 μL of growth medium supplemented 10% fetal calf serum. After 24 hours, cell viability of one plate (zero-point plate) was determined with the Cell Titre-Glo Luminescent Cell Viability Assay (Promega), while 50 μL of test compound containing medium was added to the wells of the other plates (final concentrations in the range of 0.001-1 μM and DMSO controls). Cell viability was assessed after 72-hour exposure with the Cell Titre-Glo Luminescent Cell Viability Assay (Promega). IC50 values (inhibitory concentration at 50% of maximal effect) were determined by means of a 4 parameter fit on measurement data which were normalized to vehicle (DMSO) treated cells (=100%) and measurement readings taken immediately before compound exposure (=0%).

Molecules are shown by their SMILES. Read-outs that look alike come from different tables or passages of the source. Where only a bound is given, the exact number is not on record here.

T1 sequence (P50750 whole entry): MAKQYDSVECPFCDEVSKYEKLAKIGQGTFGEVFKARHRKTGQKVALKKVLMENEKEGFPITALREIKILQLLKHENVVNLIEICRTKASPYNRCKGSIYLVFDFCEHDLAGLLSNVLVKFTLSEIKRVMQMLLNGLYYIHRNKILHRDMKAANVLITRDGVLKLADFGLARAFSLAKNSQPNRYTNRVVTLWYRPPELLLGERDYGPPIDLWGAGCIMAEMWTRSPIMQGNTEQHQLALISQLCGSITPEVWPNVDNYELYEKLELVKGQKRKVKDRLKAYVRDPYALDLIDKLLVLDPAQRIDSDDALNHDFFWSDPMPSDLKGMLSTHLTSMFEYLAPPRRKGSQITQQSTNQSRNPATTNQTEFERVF
T1 sequence (O60563 whole entry partner): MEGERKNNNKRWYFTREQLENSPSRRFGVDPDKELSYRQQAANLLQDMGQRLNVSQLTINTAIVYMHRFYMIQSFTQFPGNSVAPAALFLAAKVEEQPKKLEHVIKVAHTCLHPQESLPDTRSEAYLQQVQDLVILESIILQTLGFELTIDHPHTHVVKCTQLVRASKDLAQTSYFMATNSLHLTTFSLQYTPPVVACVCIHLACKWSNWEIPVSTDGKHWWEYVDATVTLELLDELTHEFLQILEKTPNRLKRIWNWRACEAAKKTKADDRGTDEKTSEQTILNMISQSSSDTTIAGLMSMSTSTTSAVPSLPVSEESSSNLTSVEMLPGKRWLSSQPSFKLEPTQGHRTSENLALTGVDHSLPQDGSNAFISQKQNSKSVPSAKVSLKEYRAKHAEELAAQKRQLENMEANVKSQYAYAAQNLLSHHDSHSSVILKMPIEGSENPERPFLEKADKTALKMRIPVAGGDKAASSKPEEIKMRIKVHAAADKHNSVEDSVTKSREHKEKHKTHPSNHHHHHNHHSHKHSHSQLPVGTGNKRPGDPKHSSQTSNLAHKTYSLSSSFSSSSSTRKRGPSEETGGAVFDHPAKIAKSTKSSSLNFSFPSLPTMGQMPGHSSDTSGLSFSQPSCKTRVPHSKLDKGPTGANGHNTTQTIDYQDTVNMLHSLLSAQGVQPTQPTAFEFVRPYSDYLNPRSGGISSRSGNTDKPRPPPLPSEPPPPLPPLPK

`CCNC(=O)N=S(C)(=O)Cc1cc2nc(c1)OCCCOc1cc(F)ccc1-c1cc(ncc1F)N2` (racemic) [Example 17, (rac)-1-[{[15,19-difluoro-3,4-dihydro-2H,11H-10,6-(azeno)-12,16-(metheno)-1,5,11,13-benzodioxadiazacyclooctadecin-8-yl]methyl}(methyl)oxido-λ^6-sulfanylidene]-3-ethylurea]: the IC50 against CDK9/CycT1 worked out at 2.7 nM; in the test with HeLa cells (Homo sapiens, HeLa, 96 h), 11 nM. For the same compound, on CDK9/CycT1, the “Selectivity high ATP CDK9 over high ATP CDK2: IC50 (high ATP CDK2)/IC50 (high ATP CDK9)” value (“Selectivity high ATP CDK9” for short) is recorded as 13.5.

With `CC(=O)N=S(C)(=O)Cc1cc2nc(c1)OCCCOc1cc(F)ccc1-c1cc(ncc1F)N2` (racemic) [Example 18, (rac)-N-[{[15,19-difluoro-3,4-dihydro-2H,11H-10,6-(azeno)-12,16-(metheno)-1,5,11,13-benzodioxadiazacyclooctadecin-8-yl]methyl}(methyl)oxido-λ^6-sulfanylidene]acetamide], on CDK9/CycT1, the IC50 came to 2.9 nM and the “Selectivity high ATP CDK9” value was determined as 21.7. In the test with HeLa cells (Homo sapiens, HeLa, 96 h), the IC50 came to 10 nM.

For `CN=S(C)(=O)Cc1cc2nc(c1)OCCCOc1cc(F)ccc1-c1cc(ncc1F)N2` (racemic) [Example 19, (rac)-8-[(N,S-dimethylsulfonimidoyl)methyl]-15,19-difluoro-3,4-dihydro-2H,11H-10,6-(azeno)-12,16-(metheno)-1,5,11,13-benzodioxadiazacyclooctadecine], on CDK9/CycT1, the IC50 stood at 1.9 nM and the “Selectivity high ATP CDK9” value worked out at 81.7. The IC50 with HeLa cells (Homo sapiens, HeLa, 96 h) amounted to 31 nM.

With `CCOC(=O)N=S(C)(=O)Cc1cc2nc(c1)OCCCOc1cc(F)ccc1-c1cc(ncc1F)N2` (racemic) [Example 20, (rac)-ethyl [{[15,19-difluoro-3,4-dihydro-2H,11H-10,6-(azeno)-12,16-(metheno)-1,5,11,13-benzodioxadiazacyclooctadecin-8-yl]methyl}(methyl)oxido-λ^6-sulfanylidene]carbamate], the IC50 against CDK9/CycT1 stood at 3.4 nM; in the test on HeLa cells (Homo sapiens, HeLa, 96 h) it was 26 nM. Also, on CDK9/CycT1, the “Selectivity high ATP CDK9” value was found to be 13.2.

As for `CS(=O)(Cc1cc2nc(c1)OCCCOc1cc(F)ccc1-c1cc(ncc1F)N2)=NC(=O)OCCCl` (racemic) [Example 21, (rac)-2-chloroethyl [{[15,19-difluoro-3,4-dihydro-2H,11H-10,6-(azeno)-12,16-(metheno)-1,5,11,13-benzodioxadiazacyclooctadecin-8-yl]methyl}(methyl)oxido-λ^6-sulfanylidene]carbamate], at CDK9/CycT1, the IC50 came out at 5.9 nM and the “Selectivity high ATP CDK9” value is reported as 12.7. Further, in the test with HeLa cells (Homo sapiens, HeLa, 96 h), the IC50 was 11 nM.

Take `CS(=O)(=O)N=S(C)(=O)Cc1cc2nc(c1)OCCCOc1cc(F)ccc1-c1cc(ncc1F)N2` (racemic) [Example 22, (rac)-N-[{[15,19-difluoro-3,4-dihydro-2H,11H-10,6-(azeno)-12,16-(metheno)-1,5,11,13-benzodioxadiazacyclooctadecin-8-yl]methyl}(methyl)oxido-λ^6-sulfanylidene]methanesulfonamide]: on CDK9/CycT1, the IC50 amounted to 2.7 nM and the “Selectivity high ATP CDK9” value is 71.6. For the same compound, the IC50 in the test on HeLa cells (Homo sapiens, HeLa, 96 h) worked out at 17 nM.

In the case of `CS(=O)(Cc1cc2nc(c1)OCCCOc1cc(F)ccc1-c1cc(ncc1F)N2)=NS(=O)(=O)CCN` (racemic) [Example 23, (rac)-2-amino-N-[{[15,19-difluoro-3,4-dihydro-2H,11H-10,6-(azeno)-12,16-(metheno)-1,5,11,13-benzodioxadiazacyclooctadecin-8-yl]methyl}(methyl)oxido-λ^6-sulfanylidene]ethanesulfonamide], the IC50 against CDK9/CycT1 stood at 3.9 nM; with HeLa cells (Homo sapiens, HeLa, 96 h), 57 nM. Besides, at CDK9/CycT1, the “Selectivity high ATP CDK9” value is given as 69.5.

As for `CS(=O)(Cc1cc2nc(c1)OCCCOc1cc(F)ccc1-c1cc(ncc1F)N2)=NS(=O)(=O)CCN.O=C(O)C(F)(F)F` (racemic) [Example 24, (rac)-2-{[{[15,19-difluoro-3,4-dihydro-2H,11H-10,6-(azeno)-12,16-(metheno)-1,5,11,13-benzodioxadiazacyclooctadecin-8-yl]methyl}(methyl)oxido-λ^6-sulfanylidene]sulfamoyl}ethanaminium trifluoroacetate], on CDK9/CycT1, the IC50 is 1.8 nM and the “Selectivity high ATP CDK9” value worked out at 90.4. Moreover, the IC50 in the test with HeLa cells (trifluoroacetate) amounted to 82 nM.

As to `CS(=O)(Cc1cc2nc(c1)OCCCOc1cc(F)ccc1-c1cc(ncc1F)N2)=NC(=O)OCCN` (racemic) [Example 25, (rac)-2-aminoethyl [{[15,19-difluoro-3,4-dihydro-2H,11H-10,6-(azeno)-12,16-(metheno)-1,5,11,13-benzodioxadiazacyclooctadecin-8-yl]methyl}(methyl)oxido-λ^6-sulfanylidene]carbamate], the IC50 was 3 nM against CDK9/CycT1 and 14 nM in the test with HeLa cells (Homo sapiens, HeLa, 96 h). Also, the “Selectivity high ATP CDK9” value on CDK9/CycT1 is 6.1.

Turning to `CSCc1cc2nc(c1)OCCOc1cc(F)ccc1-c1cc(ncc1F)N2` [Example 9, 14,18-Difluoro-7-[(methylsulfanyl)methyl]-2,3-dihydro-10H-9,5-(azeno)-11,15-(metheno)-1,4,10,12-benzodioxadiazacycloheptadecine], at CDK9/CycT1, the IC50 was determined as 65 nM and the “Selectivity high ATP CDK9” value is recorded as greater than 307.

As for `NCCS(=O)(=O)Cc1cc2nc(c1)OCCCOc1cc(F)ccc1-c1cc(ncc1F)N2` [Example 26, 2-({[15,19-difluoro-3,4-dihydro-2H,11H-10,6-(azeno)-12,16-(metheno)-1,5,11,13-benzodioxadiazacyclooctadecin-8-yl]methyl}sulfonyl)ethanamine], at CDK9/CycT1, the IC50 turned out to be 3.4 nM and the “Selectivity high ATP CDK9” value came to 13.0. Moreover, the IC50 with HeLa cells (Homo sapiens, HeLa, 96 h) came to 105 nM.
